The text below walks through data of US10934253B2, “Therapeutic compounds and methods” (UNIVERSITY OF TASMANIA, priority 2017, dated 2021).

The structures appear in SMILES notation.

For assay [1], the system named is LHON model induced by intravitreal rotenone in C57BL/6 mouse. Put plainly: Leber's hereditary optic neuropathy (LHON) mouse model, optomotor response. Format: in vivo. The following applies: rotenone in left eye, 200 mg/kg orally in food. As to the method:
FIG. 5: Efficacy of representative compounds of Formula (I) in leber's hereditary optic neuropathy (LHON) mouse model. LHON induced by rotenone injection in the left eye (5 μM) in C57BL/6 mouse model (Refer to Heitz, F. D et al. (2012). PLoS One., 7(9), e45182). […] Representative compounds (UTA 37 and UTA 77) and idebenone administered at 200 mg/kg over the observation period.
LHON model was induced by intravitreal injection of rotenone into the left eye in C57BL/6 mouse model as described by Heitz et al. 2012. Representative compounds (UTA 37 and UTA 77) and idebenone administered at 200 mg/kg over the observation period. Vision loss was measured by assessing number of head turns.
C57BL/6 mice (male, 8-11 weeks of age, average body weight≈25 g) were used in accordance with the Australian code for the use of animals for scientific purposes and under the required animal ethics approval from the University of Tasmania (UTAS) Animal Ethics Committee (Approval number A0016080). Animals were given at least seven days to acclimatise to the animal facility to reduce stress induced by transportation before being used for behavioural testing. All mice were supplied orally with test compounds by mixing test compounds into individual daily food portions as described previously (Heitz, F. D. et al. (2012). PLoS One., 7(9), e45182). […]

Assay [2] deals with DSS-induced colitis in C57BL/6 mice. As to the kind of experiment: Dextran sulfate sodium (DSS) induced colitis mouse model. Conditions: 2.5% DSS 7 days, 200 mg/kg orally in food once daily, vs DSS controls. The format is in vivo. As to the method:
FIGS. 8-11: Ulcerative Colitis mouse model following treatment with representative compound of Formula (I) (UTA77); FIG. 8: Body weight loss; FIG. 9: Stool consistency; FIG. 10: Bloody stools; FIG. 11: Disease activity index. […] UTA77 was formulated with food powder (200 mg/kg of body weight) which was orally administered once daily over a period of 7 days.
Body weight (refer to FIG. 8), stool consistency (refer to FIG. 9), blood content of stools (refer to FIG. 10), and general disease activity index (refer to FIG. 11) were all assessed following treatment with representative compound of Formula (I), UTA77.
Female C57BL/6 mice were used at 7-8 weeks of age having an average body weight≈17 g. Mice were divided randomly into three different groups: • 1. a healthy control group without DSS, • 2. a control group with DSS, • 3. a group treated with DSS and test compound (n=5 per group).
Body weight of mice were assessed daily over an initial acclimation period of one week (FIG. 8). All mice were non-fasting and had access to food and drinking water (autoclaved tap water) ad libitum. Representative compounds of Formula (I) were formulated with food powder (200 mg/kg of body weight) to produce individual portions that were placed into the cage once a day. Representative compounds of Formula (I) (20 mg/ml) were stirred overnight at 4° C. in 500 ml 0.5% carboxymethylcellulose (CMC) solution. To 37.5 ml of the CMC solution, 41.25 g sucrose, 371.25 g food powder and 0.5% CMC solution were mixed to prepare a food mash, which was aliquoted (2.2 g portions) in weighting trays and individually stored at −20° C. Colitis was induced by supplementing 2.5% w/v of dextran sulphate sodium (DSS, MW=36,000-50,000, colitis grade, MP Biomedicals, USA) in the drinking water of mice from day 0 to day 7 (day of termination). On day 0, all mice were weighed and checked for stool consistency and occult blood before they were exposed to DSS and test compounds. Control animals were only supplied with autoclaved drinking water without DSS, and normal chow pellets, while 2.5% DSS in tap water was provided to the DSS-treated groups from day 0 to day 7. All controls groups were also supplied with 2.2 g of food mash without test compounds. The animals of the drug-treated groups received 200 mg/kg of test compounds in food mash with 2.5% of DSS in water from day 0 to day 7. Body weight (refer to FIG. 8), stool consistency (refer to FIG. 9), blood content of stools (refer to FIG. 10) were recorded daily. The Disease Activity Index (DAI) (FIG. 11) was calculated according to scoring Table 9 below. Each parameter was scored independently and all three parameters were added to calculate the DAI.

For `COc1ccc(CCNC(=O)CCCC2=C(C)C(=O)c3ccccc3C2=O)cc1OC` [UTA #77, N-(3,4-dimethoxyphenethyl)-4-(3-methyl-1,4-naphthoquinone-2-yl)butanamide], the “Protection of visual acuity (head turns, optomotor response; in words)” value in assay [1] is reported as “Statistically significant protection of visual acuity”. Further, in assay [2], the “Bloody stools (in words)” value is recorded as “reduction in bloody stools”, the “Body weight loss (in words)” value is listed as “less weight loss than DSS controls”, the “Disease activity index (in words)” value was “reduced disease activity” and the “Stool consistency (in words)” value is given as “improved stools”.
